From US20050043412A1, “Remedies for glaucoma comprising bunazosin and prostaglandins” (SANTEN PHARMACEUTICAL CO LTD, priority 2002, published 2005)
Counter-ions that a name gives are not always drawn.

Tested on: intraocular pressure of cynomolgus monkeys
Assay: Effect on intraocular pressure in normal cynomolgus monkeys after topical instillation
Type: in vivo, cynomolgus monkeys (Macaca fascicularis)
Conditions: normal cynomolgus monkey, single eye, 20 μl instillation (Detantol 0.01% bunazosin hydrochloride; Xalatan 0.005% latanoprost; combination: Xalatan 5 minutes after Detantol); IOP measured 2, 4 and 6 hours after administration
Description: So as to study the utility of bunazosin in combination with prostaglandin, bunazosin and prostaglandin were administered in combination to cynomolgus monkeys (Macaca fascicularis), examining the effect on intraocular pressure. Latanoprost was used as prostaglandin.
For bunazosin administration, Detantol (trade mark) ophthalmic solution, which contains bunazosin hydrochloride at 0.01%, was used. For latanoprost administration, Xalatan (trade mark) ophthalmic solution, which contains latanoprost at 0.005%, was used.
Cynomolgus monkeys were divided into four groups, a group to be dosed with a vehicle (vehicle group), a group to be dosed with bunazosin (bunazosin group), a group to be dosed with latanoprost (latanoprost group) and a group to be dosed with bunazosin and latanoprost [(bunazosin+latanoprost) group].
• 1. For topical anesthesia, a drop of 0.4% oxybuprocain hydrochloride ophthalmic solution was instilled into a single eye of each normal cynomolgus monkey. Then, intraocular pressure was measured before drug administration. • 2. […] 2, 4 and 6 hours after the administration of these test compound solutions, one drop of 0.4% oxybuprocain hydrochloride eye drops was instilled for topical anesthesia, and the intraocular pressure was measured. The maximum reduction of intraocular pressure in each group was determined by the following formula. […]

CCCC(=O)N1CCCN(c2nc(N)c3cc(OC)c(OC)cc3n2)CC1 [Bunazosin, Bunazosin hydrochloride]
Maximum reduction of intraocular pressure: 1.9 mmHg

CC(C)OC(=O)CCC/C=C\C[C@@H]1[C@@H](CC[C@@H](O)CCc2ccccc2)[C@H](O)C[C@@H]1O [Latanoprost]
Maximum reduction of intraocular pressure: 2.6 mmHg
